Data published in patent US6239182A, “Method for preventing sexually transmitted diseases” (priority 1999, dated 2001).

What was measured:
[1] = system: vaginal/cervical epithelial and other cells; settings: background statement; cited from earlier work
[2] = system: sheep testicular hyaluronidase; test: hyaluronidase inhibition (hyaluronic acid hydrolysis); format: biochemical; settings: pH 5.5, 10 minutes preincubation; inactive = no inhibition at 1 mg/ml
Experimental: Hyaluronidase activity was quantitatively determined by measuring the extent of hyaluronic acid hydrolysis (i.e., the concentration of N-acetylglucosamine-reactive material formed from enzyme activity). Reaction mixtures (0.25 ml) containing the following were prepared: test compound (variable concentration); 0.1 M sodium acetate; 0.15 M sodium chloride; pH adjusted to 5.5; 7.2 units sheep testicular hyaluronidase (Sigma, Type III; H-2251) contained in an acetate buffer; 0.3 mg/ml hyaluronic acid (Sigma, from bovine vitreous humor; H-7630). The enzyme was preincubated with the test agent (1 mg/ml for screening purposes) for 10 minutes before starting the reaction by the addition of hyaluronic acid. The enzyme reaction was determined using the method of Aronson and Davidson (J. Biol. Chem. 241 437-440 (1967)). The reaction mixture was incubated for 30 minutes at room temperature.
The reversibility of the hyaluronidase was determined by evaluating enzyme activity at different levels of enzyme (Ackermann and Potter, Proc. Soc. Exp. Biol. Med. 72 1-9 (1949)).

Lactobacillus gasseri = test: effect on normal vaginal flora (Lactobacillus growth in culture); format: cell-based; settings: at 0.5 mg/ml
Experimental: This example illustrates the effect of the inhibitory agents of this invention on the normal vaginal flora. Lactobacillus gasseri, which is found in normal vaginal flora, was obtained from the American Type Culture Collection (Rockville, Md.) and cultured under anaerobic conditions at 37° C. in the presence of the desired test agents. Control samples without added test agents were also run. Samples were collected at twenty minute intervals starting at 120 minutes after the start of incubation through 240 minutes. The absorbance at 550 nm was used to estimate the cell density and inhibitory effects. Nonoxynol-9 was also evaluated for comparison purposes.

MT2 cells = test: cytotoxicity towards host cells in the viral-binding inhibition assay; format: cell-based; settings: at the concentration ranges used in the viral-binding inhibition assay
Experimental: Serial dilutions of the test compounds (ranging from 0.1 μg/ml to 1.0 mg/ml) were added to HIV-1 virus such that 50 μl inoculum produced between 70 to 100 syncytia per well in untreated wells containing MT2 cells. The HIV-1 used was strain IIIs propagated in, and harvested from, a T4-lymphobastoid cell line. Each serial dilution of the test compound with virus was placed in each of three wells containing MT2 cells. The test compound alone was added to a fourth well containing MT2 cells to test for possible cytotoxicity. Triplicate virus control samples (no added test compounds but containing the equivalent amounts of the RPMI medium) were also included.

HIV-1 = settings: comparison statement, no data given; cited from earlier work

## Nonoxynol-9
[1]
  lowest concentration that can injure vaginal/cervical epithelial and other cells: about 0.0005%
[2]
  IC50 (hyaluronidase): inactive
Lactobacillus gasseri
  inhibition of Lactobacillus gasseri growth: about 60%
MT2 cells
  toxicity towards the host cells (MT2): did show cytotoxic effects
HIV-1
  inhibition of the enveloped virus HIV (in words): inhibits
